Laboratory results published in patent US20010005752A1, “Fluorescent dyes (AIDA) for solid phase and solution phase screening” (priority 1998, published 2001).

Assays:
avidin [1] = molecular target: T1, avidin (Gallus gallus, UniProt P02701); assay: Fluorescence anisotropy as signal for binding to avidin
T1 construct: purchased Molecular Probes (Eugene, Oreg.) A-2767
Protocol: (§1) For solubility reasons, 4e is spectroscopically characterized in THF. All complexation reactions and fluorescence resonance energy transfer measurements are performed in PBS/5% DMSO at 25° C., unless indicated otherwise.
(§2) Fluorescence anisotropy is calculated according to [Lakowicz, 1983].
(§3) Spectral bandwidths are set to 4 and 8 nm for excitation and emission, respectively, with 5 seconds integration time. For calculation of fluorescence anisotropy ten data points are averaged.
(§4) This value is indicative for a small monomeric molecule rotating free in solution. […] When 1 μM of the BODIPY-FL labelled avidin was used as substrate the r-value was 0.100. This reduced change in anisotropy probably reflects the lower affinity of the BODIPY-FL labelled avidin as compared to the unlabelled material.

[2] = UV-Vis absorption spectroscopy; assay type: physicochemical; settings: acetonitrile/2% DMSO
Protocol: UV-Vis absorption spectroscopy is performed on a Cary 1E spectrophotometer. […]
[…] […] From each stock solution, 5 dilutions with concentrations of 2.5 μm, 10 μM, 17 μM, 25 μm and 35 μM are made. UV-spectra of each dilution are recorded from 200 to 400 nm, using a quarz cuvette with a pathlength of 1 cm. […] A linear fit is carried out for each series of measurements. The extinction coefficient ε at 337 nm is given by the slope of the linear regression.

[3] = Steady-state fluorescence spectroscopy (excitation and emission spectra); assay type: physicochemical; settings: for Emission range in parenthesis / Emission λmax / Excitation range in parenthesis / Excitation λmax: acetonitrile/2% DMSO
Protocol: Steady-state fluorescence measurements are performed on a SLM 8000C spectro-fluorometer equipped with JD490 photomultipliers and a 450 W Xenon Arclamp (SLM Instruments, Urbana, Ill.).
[…] Spectral bandwidths are set to 1 and 4 nm for excitation and emission, respectively. Spectra are recorded in single photon counting mode. Changes in lamp intensity are corrected with a quantum counter in the reference channel, measured in slow mode. Gain is set to x 100 with a high voltage (HV) of 640 V. Integration time is 2 seconds. For excitation spectra measurements, the emission wavelength is set to 397 nm and the sample is excited from 200 to 400 nm. For recording emission spectra, the sample is excited at 342 nm and the emission is recorded from 350 to 540 nm. The data are averaged over two scans.

[4] = molecular target: T2, BODIPY-FL labelled avidin (Gallus gallus, UniProt P02701); assay: Fluorescence anisotropy with BODIPY-FL labelled avidin; assay type: binding; settings: 50 nM conjugate, 1 μM BODIPY-FL labelled avidin
T2 construct: BODIPY FL (chemical fluorescent label, about 3.3 per avidin); purchased Molecular Probes (Eugene, Oreg.) A-2641
T2 sequence (P02701 25-152): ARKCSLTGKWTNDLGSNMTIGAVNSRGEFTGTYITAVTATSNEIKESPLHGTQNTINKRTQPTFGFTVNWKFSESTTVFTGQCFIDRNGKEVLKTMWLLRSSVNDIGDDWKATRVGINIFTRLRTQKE
Protocol: as §1, §2, §3, §4

avidin [5] = molecular target: T1, avidin; assay: FRET / quenching with unlabelled avidin (tryptophan donor, AIDA acceptor); assay type: binding
Protocol: as §1
(§5) Spectral bandwidths are set to 8 and 16 nm for excitation and emission, respectively. Measurements are performed at 25° C. in a 750 μL quartz cuvette (10 mm optical pathlength) without stirring after initial mixing. A concentration of 50 nM of 9 or 11 is used for complexation with 1 μM of (fluorescent) avidin. […] All titrations are performed in magic angle setting, with the emission wavelength set to […] in experiments where the indazole is the acceptor, and with an excitation spectrum recorded from 250 nm to 360 nm. In experiments where indazole is used as donor and Lucifer Yellow or BODIPY FL is the acceptor, the excitation wavelength is set to 338 nm or 325 nm. The fluorescence emission is collected between 360 nm and 700 nm. The spectra are corrected for Raman scattering from the PBS solution, for dilution, and for inner filter effects due to protein additions, The signal is adjusted for lamp intensity changes by ratio mode detection with a Rhodamine B quantum counter in the reference channel. A WG 360 emission cutoff filter is used for straylight reduction. Data are collected in 2 nm increments with 1 second integration time.
An emission wavelength at 480 nm was chosen because the tryptophan fluorescence of avidin had almost reached the baseline level at this emission energy, resulting in only minor avidin fluorescence contribution between 250 and 370 nm. […] This quenching effect can be attributed to all radiative and non-radiative processes occurring to 11 in the vicinity of the tryptophans in the binding cleft. Corresponding to the ratio of the negative and positive areas under the fluorescence difference curve (black), 62% of this total quenching effect is fluorescence resonance energy transfer. From 250 to 305 nm the enhancement of the tryptophan and tyrosine fluorescence intensity is 72% based on the sum of 11 and avidin.

avidin-BODIPY-FL = molecular target: T3, avidin-BODIPY-FL (Gallus gallus, UniProt P02701); assay: FRET / quenching with avidin-BODIPY-FL (AIDA donor, BODIPY-FL acceptor); assay type: binding
T3 construct: BODIPY FL (chemical fluorescent label, about 3.3 per avidin); purchased Molecular Probes (Eugene, Oreg.) A-2641
T3 sequence (P02701 25-152): as above
Protocol: as §1, §5
In these experiments 11 was used as donor and BODIPY-FL as acceptor. At an excitation wavelength of 338 nm the emission of 11 between 360 nm and 516 nm is strongly quenched by approximately 80% in the complexed form. The standard definition for energy transfer efficiency, E=1−Fda/Fd, would result in E≅0.8. […] The approximately 80% reduction in signal intensity of 11 can be caused either by FRET or from local quenching of the fluorescence of 11 mainly by ground state interactions. […] Due to the broad fluorescence emission of 11 in water the detection wavelength can be shifted up to 500 nm which is at lower energy than most background fluorescence signals from small chemical compounds.

[6] = in acetonitrile; cited from earlier work
[7] = in acetonitrile; cited from earlier work; remark: listed apart in the source
avidin [8] = molecular target: T1, avidin; assay: Time-resolved fluorescence depolarisation on binding of avidin; settings: PBS/5% DMSO
Protocol: Picosecond time-resolved fluorescence measurements are recorded according to the single photon counting technique [Lakowicz, 1983 p 52-93, 112-153, 156-185]. An Ar^+-pumped Ti:Sapphire laser (model MIRA 900, Coherent, Santa Clara, USA) provided under mode-locked conditions ultrashort pulses (FWHM=150 fs) with a frequency of 75 MHz. To reduce the repetition rate to 4.7 MHz, a pulse picker (model 9200, Coherent, Santa Clara, USA) is inserted into the beam. […] Fluorescence photons are collected in a Spex 1681 single grating monochromator (Spex, Edison, USA) and detected with the Hamamatsu R3809U microchannel plate (Hamamatsu, Shimokanzo, Japan). […] The voltage values which correspond to the time passed between excitation and emission of a fluorescence photon in a single experiment are stored in the Spectrum Master 921 (Ortec, Oak Ridge, USA) which is connected to the multichannel emulation program Maestro (Ortec, Oak Ridge, USA). […]
c. Binding of AIDA conjugate 8 to avidin-BODIPY detected by rotational diffusion and energy transfer: Energy transfer between the indazole moiety in 8 and the 3.3 BODIPY-FL lables on avidin by time-resolved fluorescence spectroscopy.
Binding of avidin labelled with BODIPY-FL to 8 creates a further depolarisation mode for the indazole fluorescence: Fluorescence resonance energy transfer between the indazole moiety of 8 and the BODIPY-FL labels. […]

[9] = unlabelled avidin, conjugate as acceptor

T1 sequence (P02701 25-152): as above

C=CCOC(=O)c1ccc(-c2nn(-c3ccc(C(=O)N[C@@H](CCCCNC(=O)CCCCC4SCC5NC(=O)NC54)C(=O)O)cc3)c3ccccc23)cc1 (stereo partly drawn) [compound 11]
change of anisotropy on binding to avidin (avidin [1]; 50 nM conjugate, 1 μM avidin): +444% | fluorescence anisotropy bound to avidin (avidin [1]; 50 nM conjugate, 1 μM avidin): 0.151 | basic fluorescence anisotropy (free conjugate) (avidin [1]; 50 nM, excitation 338 nm, emission 438 nm, no avidin): 0.034 | Absorption λmax [2]: 334 nm | ε (at absorption λmax) [2]: 34349 M⁻¹ cm⁻¹ | emission maximum ([3]; 50 nM, PBS/5% DMSO, excitation 338 nm): 438 nm | emission intensity at 500 nm ([3]; PBS buffer, 500 nm): about 50% | Emission range in parenthesis [3]: 370-480 nm | Emission λmax [3]: 397 nm | Excitation range in parenthesis [3]: 310-360 nm | Excitation λmax [3]: 336 nm | fluorescence anisotropy (r-value) with BODIPY-FL labelled avidin [4]: 0.100 | quenching of conjugate fluorescence by complexation in the avidin binding site (avidin [5]; 50 nM conjugate, 1 μM unlabelled avidin, emission 480 nm): about 25.5% | enhancement of tryptophan and tyrosine fluorescence intensity (avidin [5]; 250 to 305 nm, based on the sum of 11 and avidin): 72% | tryptophan to conjugate energy transfer relative to free avidin plus 11 (avidin [5]; detected at 480 nm): 70% | part of total quenching effect that is fluorescence resonance energy transfer (avidin [5]; ratio of negative and positive areas under difference curve): 62% | energy transfer efficiency E=1−Fda/Fd (avidin-BODIPY-FL; standard definition, stated as not valid here): ~0.8

c1ccc2[nH]ncc2c1 [1H-indazole]
maximum of fluorescence emission [6]: 298 nm | maximum of absorption [7]: 294 nm

NC(=O)c1ccc(-n2nc(-c3ccc(C(=O)NCCCNC(=O)CCCCC4SCC5NC(=O)NC54)cc3)c3ccccc32)cc1 (stereo not drawn) [compound 8, 3′(+)-4-{3-[4-(3′-Biotinoylaminopropyl)-aminocarbonyl]phenyl-1H-indazol-1-yl}-benzoic acid Amide]
Absorption λmax [2]: 331 nm | ε (at absorption λmax) [2]: 32158 M⁻¹ cm⁻¹ | Emission range in parenthesis [3]: 360-480 nm | Emission λmax [3]: 394 nm | Excitation range in parenthesis [3]: 310-360 nm | Excitation λmax [3]: 332 nm | fluorescence depolarisation on binding of avidin (unlabelled) (avidin [8]): slower depolarisation | enhanced energy transfer (tryptophan/indazole) (avidin [5]; [9]): 120% | increase in indazole fluorescence emission on avidin complexation (avidin [5]; [9]): 26% | quenching of indazole (donor) emission in complex with avidin-BODIPY-FL (avidin-BODIPY-FL; 50 nM conjugate, 1 μM avidin-BODIPY-FL, excitation 338 nm, emission 360-516 nm): 93.5% | fluoresence energy transfer (acceptor sensitization) (avidin-BODIPY-FL; avidin-BODIPY complex): 48%
